Test results published in US8415469B2, “Compounds and methods for kinase modulation, and indications therefor” (Plexxikon Inc., priority 2005, dated 2013).

Experiments:
Type in all cases: biochemical
B-Raf = target: T1, B-Raf (Homo sapiens, UniProt P15056); assay: AlphaScreen kinase assay, B-Raf; conditions: read-out: IC50, activity toward kinase B-Raf
T1 construct: purchased Upstate Biotechnology

Kit = target: T2, Kit (Homo sapiens, UniProt P10721); assay: AlphaScreen kinase assay, Kit; conditions: read-out: IC50, activity toward kinase Kit
T2 construct: P1332.N6 BI PTP KIT M552-K948-X COD; His6 (N); made in house; host or cells: E. coli (PTP1B co-expressed)

MAP4K4 = MAP4K4 (Homo sapiens, UniProt O95819); assay: AlphaScreen kinase assay, MAP4K4; conditions: read-out: IC50, activity toward kinase MAP4K4
c-Raf-1 = target: T3, c-Raf-1 (Homo sapiens, UniProt P04049); assay: AlphaScreen kinase assay, c-Raf-1; conditions: read-out: IC50, activity toward kinase c-Raf-1
T3 construct: purchased Upstate Biotechnology

Fms = target: T4, Fms (Homo sapiens, UniProt P07333); assay: AlphaScreen kinase assay, Fms; conditions: read-out: IC50, activity toward kinase Fms
T4 construct: purchased Upstate Biotechnology

B-Raf V600E = target: T5, B-Raf V600E (Homo sapiens, UniProt P15056, V600E); assay: AlphaScreen kinase assay, B-Raf V600E; conditions: read-out: IC50, activity toward kinase B-Raf V600E
T5 construct: P4254. pFastBacBD-CDC37 BRAF D437-K722-X, V600E; His6 with pFastBac HT leader (TEV site) (N); made in house; host or cells: Sf9 (baculovirus; chaperone CDC37 co-expressed)

Flt1 = target: T6, Flt1 (Homo sapiens, UniProt P17948); assay: AlphaScreen kinase assay, Flt1; conditions: read-out: IC50, activity toward kinase Flt1
T6 construct: P1826.pETN6 BI-PTP FLT1 M799-D1165-X WT; His6 (N); made in house; host or cells: E. coli (PTP1B co-expressed)
T6 sequence (P17948 with tags, fused parts or gaps): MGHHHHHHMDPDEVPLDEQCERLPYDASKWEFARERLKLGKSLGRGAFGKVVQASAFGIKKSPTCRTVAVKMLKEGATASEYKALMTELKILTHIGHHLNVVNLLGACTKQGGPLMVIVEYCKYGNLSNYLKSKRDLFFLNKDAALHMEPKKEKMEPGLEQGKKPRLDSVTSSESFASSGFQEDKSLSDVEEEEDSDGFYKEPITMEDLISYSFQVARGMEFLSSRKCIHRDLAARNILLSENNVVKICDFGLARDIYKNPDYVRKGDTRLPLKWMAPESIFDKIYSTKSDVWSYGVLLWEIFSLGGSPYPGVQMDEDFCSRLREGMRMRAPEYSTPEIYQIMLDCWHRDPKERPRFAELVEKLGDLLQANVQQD

FGFR1 = target: T7, FGFR1 (Homo sapiens, UniProt P11362, C488A/C584S); assay: AlphaScreen kinase assay, FGFR1; conditions: read-out: IC50, activity toward kinase FGFR
T7 construct: P1351.pET N6 BI-PTP FGFR A458-E765-X C488A, C584S; made in house; host or cells: E. coli (PTP1B co-expressed)

Jnk1 = target: T8, Jnk1 (Homo sapiens, UniProt P45983); assay: AlphaScreen kinase assay, Jnk1; conditions: read-out: IC50, activity toward kinase Jnk1
T8 construct: purchased Upstate Biotechnology

Src = target: T9, Src (Homo sapiens, UniProt P12931); assay: AlphaScreen kinase assay, Src; conditions: read-out: IC50, activity toward kinase Src
T9 construct: P1144. pET-N6 BI-PTP SRC V86-L536-X; made in house

Stk6 = target: T10, Stk6 (Homo sapiens, UniProt O14965); assay: Z'-Lyte FRET kinase assay (Invitrogen), Stk6; conditions: read-out: IC50, activity toward kinase Stk6
T10 construct: purchased Invitrogen (Carlsbad, Calif.), screening service
T10 sequence (O14965 1-403): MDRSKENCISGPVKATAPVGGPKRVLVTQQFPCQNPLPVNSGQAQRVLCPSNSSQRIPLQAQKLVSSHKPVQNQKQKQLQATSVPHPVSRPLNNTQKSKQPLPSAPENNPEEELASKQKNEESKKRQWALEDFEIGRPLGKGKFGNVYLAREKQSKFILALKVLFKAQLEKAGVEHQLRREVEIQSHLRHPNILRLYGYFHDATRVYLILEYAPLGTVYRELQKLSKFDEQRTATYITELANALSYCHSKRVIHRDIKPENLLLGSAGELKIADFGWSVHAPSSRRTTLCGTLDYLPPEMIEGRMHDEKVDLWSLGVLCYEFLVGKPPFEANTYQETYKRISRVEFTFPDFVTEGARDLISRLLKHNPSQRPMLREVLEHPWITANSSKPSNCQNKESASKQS

Ret = target: T11, Ret (Homo sapiens, UniProt P07949); assay: AlphaScreen kinase assay, Ret; conditions: read-out: IC50, activity toward kinase Ret
T11 construct: P1378.pET-SF BI-PTP RET H661-R1012 HIS; made in house
T11 sequence (P07949 with tags, fused parts or gaps): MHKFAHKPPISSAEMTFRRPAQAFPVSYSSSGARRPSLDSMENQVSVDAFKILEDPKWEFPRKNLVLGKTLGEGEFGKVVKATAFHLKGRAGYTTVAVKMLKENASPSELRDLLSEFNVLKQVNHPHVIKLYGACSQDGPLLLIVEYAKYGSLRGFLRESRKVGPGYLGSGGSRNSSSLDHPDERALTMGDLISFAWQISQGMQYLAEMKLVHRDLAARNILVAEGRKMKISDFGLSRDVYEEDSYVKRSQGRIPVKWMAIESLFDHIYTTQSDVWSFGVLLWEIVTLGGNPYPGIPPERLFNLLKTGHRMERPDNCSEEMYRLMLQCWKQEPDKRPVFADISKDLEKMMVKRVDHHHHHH

Measured: IC50

T5 sequence (P15056 with tags, fused parts or gaps V600E): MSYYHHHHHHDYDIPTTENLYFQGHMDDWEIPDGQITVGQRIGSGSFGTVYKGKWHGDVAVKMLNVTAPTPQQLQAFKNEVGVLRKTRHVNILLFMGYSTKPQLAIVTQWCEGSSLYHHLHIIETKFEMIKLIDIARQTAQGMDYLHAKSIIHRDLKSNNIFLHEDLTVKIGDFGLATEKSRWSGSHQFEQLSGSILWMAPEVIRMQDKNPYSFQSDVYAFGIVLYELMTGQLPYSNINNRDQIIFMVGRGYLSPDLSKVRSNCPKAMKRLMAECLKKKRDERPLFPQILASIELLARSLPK
Sequence of MAP4K4 (O95819 whole entry): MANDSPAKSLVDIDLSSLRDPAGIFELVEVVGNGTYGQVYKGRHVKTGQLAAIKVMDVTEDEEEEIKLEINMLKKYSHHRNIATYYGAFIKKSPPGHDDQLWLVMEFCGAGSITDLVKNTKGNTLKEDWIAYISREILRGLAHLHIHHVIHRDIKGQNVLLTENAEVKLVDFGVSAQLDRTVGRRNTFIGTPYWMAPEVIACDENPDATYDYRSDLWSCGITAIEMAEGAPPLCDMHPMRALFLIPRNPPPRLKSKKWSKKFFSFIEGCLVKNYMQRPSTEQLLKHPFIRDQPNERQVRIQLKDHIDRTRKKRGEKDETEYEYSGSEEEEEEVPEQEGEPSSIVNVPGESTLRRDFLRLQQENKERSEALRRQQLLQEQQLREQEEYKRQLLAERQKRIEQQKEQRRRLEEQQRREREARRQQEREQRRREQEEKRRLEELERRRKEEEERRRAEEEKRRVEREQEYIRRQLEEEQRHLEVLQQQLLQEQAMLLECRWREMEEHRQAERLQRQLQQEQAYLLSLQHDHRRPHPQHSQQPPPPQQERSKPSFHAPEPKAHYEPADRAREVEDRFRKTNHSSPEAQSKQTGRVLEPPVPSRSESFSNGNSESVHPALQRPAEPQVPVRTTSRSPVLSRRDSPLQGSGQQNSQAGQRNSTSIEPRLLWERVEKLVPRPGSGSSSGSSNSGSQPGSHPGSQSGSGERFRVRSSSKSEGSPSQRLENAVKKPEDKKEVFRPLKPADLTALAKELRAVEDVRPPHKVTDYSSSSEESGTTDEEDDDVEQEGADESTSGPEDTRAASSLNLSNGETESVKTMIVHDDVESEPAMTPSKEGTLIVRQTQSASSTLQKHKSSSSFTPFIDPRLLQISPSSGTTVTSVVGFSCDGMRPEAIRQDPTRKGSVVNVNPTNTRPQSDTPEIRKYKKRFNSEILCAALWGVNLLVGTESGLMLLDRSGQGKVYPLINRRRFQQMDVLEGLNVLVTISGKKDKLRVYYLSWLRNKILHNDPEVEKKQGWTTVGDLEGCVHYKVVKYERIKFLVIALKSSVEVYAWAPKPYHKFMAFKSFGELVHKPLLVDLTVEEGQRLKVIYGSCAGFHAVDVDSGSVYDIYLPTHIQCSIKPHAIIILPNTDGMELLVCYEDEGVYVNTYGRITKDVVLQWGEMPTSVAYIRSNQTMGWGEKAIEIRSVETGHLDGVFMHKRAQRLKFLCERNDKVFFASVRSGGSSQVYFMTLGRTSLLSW
T1 sequence (P15056 whole entry): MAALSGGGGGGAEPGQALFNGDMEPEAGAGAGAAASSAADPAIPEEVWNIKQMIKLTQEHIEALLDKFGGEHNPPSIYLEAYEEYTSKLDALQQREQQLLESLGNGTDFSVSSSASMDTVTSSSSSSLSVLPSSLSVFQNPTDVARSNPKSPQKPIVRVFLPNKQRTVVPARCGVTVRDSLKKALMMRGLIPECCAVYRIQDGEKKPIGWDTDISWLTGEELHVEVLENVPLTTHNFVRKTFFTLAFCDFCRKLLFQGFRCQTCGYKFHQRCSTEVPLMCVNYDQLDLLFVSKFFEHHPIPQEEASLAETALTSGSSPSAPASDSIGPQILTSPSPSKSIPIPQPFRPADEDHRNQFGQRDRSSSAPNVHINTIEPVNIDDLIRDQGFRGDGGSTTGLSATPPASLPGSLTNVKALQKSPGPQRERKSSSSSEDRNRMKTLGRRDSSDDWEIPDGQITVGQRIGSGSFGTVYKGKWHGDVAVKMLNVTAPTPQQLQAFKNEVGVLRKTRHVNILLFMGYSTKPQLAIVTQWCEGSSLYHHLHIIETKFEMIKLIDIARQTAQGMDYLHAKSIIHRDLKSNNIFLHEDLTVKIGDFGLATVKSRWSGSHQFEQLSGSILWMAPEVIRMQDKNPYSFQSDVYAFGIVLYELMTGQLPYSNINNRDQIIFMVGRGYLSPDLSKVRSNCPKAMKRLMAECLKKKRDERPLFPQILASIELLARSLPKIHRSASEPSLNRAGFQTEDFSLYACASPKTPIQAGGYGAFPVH
T7 sequence (P11362 458-765 C488A/C584S): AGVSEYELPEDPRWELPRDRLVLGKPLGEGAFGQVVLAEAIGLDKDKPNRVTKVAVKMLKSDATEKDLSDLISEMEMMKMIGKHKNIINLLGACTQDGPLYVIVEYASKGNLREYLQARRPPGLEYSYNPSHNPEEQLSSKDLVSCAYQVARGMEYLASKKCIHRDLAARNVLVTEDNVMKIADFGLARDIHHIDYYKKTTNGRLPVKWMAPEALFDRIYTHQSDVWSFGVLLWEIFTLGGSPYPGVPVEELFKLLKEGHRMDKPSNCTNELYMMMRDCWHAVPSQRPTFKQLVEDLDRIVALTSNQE
T2 sequence (P10721 with tags, fused parts or gaps): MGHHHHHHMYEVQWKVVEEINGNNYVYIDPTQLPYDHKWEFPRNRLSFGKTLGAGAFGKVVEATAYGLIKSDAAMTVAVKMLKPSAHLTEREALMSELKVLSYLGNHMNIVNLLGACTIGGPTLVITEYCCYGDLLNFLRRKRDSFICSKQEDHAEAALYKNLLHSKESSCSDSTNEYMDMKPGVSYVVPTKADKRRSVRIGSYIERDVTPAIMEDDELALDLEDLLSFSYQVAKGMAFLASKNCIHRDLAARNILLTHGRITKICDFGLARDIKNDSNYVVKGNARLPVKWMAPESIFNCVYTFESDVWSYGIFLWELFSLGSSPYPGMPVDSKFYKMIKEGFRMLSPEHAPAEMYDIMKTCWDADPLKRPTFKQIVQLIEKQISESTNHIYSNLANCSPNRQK
T4 sequence (P07333 20-972): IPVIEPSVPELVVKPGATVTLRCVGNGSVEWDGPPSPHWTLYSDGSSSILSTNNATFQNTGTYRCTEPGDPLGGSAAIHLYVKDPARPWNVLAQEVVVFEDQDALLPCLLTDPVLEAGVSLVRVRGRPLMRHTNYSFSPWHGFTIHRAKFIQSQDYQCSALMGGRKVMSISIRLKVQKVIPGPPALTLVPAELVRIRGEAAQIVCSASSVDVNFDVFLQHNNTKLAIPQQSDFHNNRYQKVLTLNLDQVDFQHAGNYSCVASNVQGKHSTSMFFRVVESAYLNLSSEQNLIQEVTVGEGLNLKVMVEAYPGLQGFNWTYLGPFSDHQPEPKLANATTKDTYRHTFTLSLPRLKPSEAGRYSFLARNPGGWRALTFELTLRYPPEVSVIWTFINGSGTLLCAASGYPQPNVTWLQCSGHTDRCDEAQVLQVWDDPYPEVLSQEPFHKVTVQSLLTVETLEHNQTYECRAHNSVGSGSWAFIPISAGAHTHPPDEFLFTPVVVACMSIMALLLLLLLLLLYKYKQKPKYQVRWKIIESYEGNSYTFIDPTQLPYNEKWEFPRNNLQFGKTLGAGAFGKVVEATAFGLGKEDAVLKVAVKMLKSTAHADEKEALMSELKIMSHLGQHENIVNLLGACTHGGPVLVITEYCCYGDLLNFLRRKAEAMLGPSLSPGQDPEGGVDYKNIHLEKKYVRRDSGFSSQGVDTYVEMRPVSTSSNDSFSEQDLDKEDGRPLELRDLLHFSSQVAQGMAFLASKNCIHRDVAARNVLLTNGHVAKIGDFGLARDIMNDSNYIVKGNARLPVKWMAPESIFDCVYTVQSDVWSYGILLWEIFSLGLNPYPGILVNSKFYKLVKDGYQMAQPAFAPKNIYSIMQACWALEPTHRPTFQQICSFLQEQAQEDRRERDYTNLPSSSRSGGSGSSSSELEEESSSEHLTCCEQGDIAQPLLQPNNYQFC
T3 sequence (P04049 whole entry): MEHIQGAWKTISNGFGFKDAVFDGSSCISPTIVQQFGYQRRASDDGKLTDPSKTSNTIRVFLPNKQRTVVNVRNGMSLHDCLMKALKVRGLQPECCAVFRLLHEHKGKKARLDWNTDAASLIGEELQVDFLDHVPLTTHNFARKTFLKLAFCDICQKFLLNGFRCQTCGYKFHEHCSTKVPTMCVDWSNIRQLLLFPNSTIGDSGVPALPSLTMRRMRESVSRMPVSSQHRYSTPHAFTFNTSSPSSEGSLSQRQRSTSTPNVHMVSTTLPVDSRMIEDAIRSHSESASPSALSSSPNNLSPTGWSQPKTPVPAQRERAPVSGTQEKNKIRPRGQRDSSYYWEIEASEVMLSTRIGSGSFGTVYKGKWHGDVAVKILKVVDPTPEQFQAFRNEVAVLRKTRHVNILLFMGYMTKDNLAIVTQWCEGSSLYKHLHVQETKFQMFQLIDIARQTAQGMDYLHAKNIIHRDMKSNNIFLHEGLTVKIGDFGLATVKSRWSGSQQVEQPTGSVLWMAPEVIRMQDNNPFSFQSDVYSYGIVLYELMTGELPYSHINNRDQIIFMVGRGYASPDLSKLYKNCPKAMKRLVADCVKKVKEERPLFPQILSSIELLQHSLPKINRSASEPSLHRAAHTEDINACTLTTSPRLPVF
T8 sequence (P45983 whole entry): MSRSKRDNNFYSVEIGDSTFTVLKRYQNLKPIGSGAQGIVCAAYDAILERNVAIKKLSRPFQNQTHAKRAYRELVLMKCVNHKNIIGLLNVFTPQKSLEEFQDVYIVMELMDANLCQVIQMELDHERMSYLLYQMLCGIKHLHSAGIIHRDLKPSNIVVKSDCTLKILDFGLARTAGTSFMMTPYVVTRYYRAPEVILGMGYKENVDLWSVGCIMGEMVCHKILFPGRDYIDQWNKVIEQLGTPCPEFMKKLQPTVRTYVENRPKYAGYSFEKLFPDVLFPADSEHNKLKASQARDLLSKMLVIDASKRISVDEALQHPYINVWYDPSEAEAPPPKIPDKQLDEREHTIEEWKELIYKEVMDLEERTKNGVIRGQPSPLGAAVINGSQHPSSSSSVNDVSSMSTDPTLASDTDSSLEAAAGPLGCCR

O=C(c1c(F)ccc(NS(=O)(=O)c2ccc(C(F)(F)F)cc2)c1F)c1c[nH]c2ncccc12 [Compound P-0931, N-[2,4-Difluoro-3-(1H-pyrrolo[2,3-b]pyridine-3-carbonyl)-phenyl]-4-trifluoromethyl-benzenesulfonamide]
≤ 10 µM: B-Raf | Kit | MAP4K4 | c-Raf-1 | Fms | B-Raf V600E

O=C(c1cccc(OC(F)F)c1)c1c[nH]c2ncc(-c3cccnc3)cc12 [Compound P-1415, (3-Difluoromethoxy-phenyl)-(5-pyridin-3-yl-1H-pyrrolo[2,3-b]pyridin-3-yl)-methanone]
≤ 10 µM: Flt1 | Kit | MAP4K4 | FGFR1 | Fms | B-Raf V600E

CS(=O)(=O)Nc1cccc(-c2cnc3[nH]cc(C(=O)c4cc(Cl)cc(Cl)c4)c3c2)c1 [Compound P-1429, N-{3-[3-(3,5-Dichloro-benzoyl)-1H-pyrrolo[2,3-b]pyridin-5-yl]-phenyl}-methanesulfonamide]
≤ 10 µM: Flt1 | B-Raf | Kit | MAP4K4 | FGFR1 | Fms | B-Raf V600E

O=C(c1c(F)ccc(NS(=O)(=O)c2ccc(Cl)cc2)c1F)c1c[nH]c2ncccc12 [Compound P-0937, 4-Chloro-N-[2,4-difluoro-3-(1H-pyrrolo[2,3-b]pyridine-3-carbonyl)-phenyl]-benzenesulfonamide]
≤ 10 µM: B-Raf | Kit | MAP4K4 | FGFR1 | c-Raf-1 | B-Raf V600E

O=C(O)c1ccc(F)c(C(=O)c2c[nH]c3ncc(-c4cccnc4)cc23)c1F [Compound P-1017]
≤ 10 µM: MAP4K4 | FGFR1 | c-Raf-1

COc1cc(Nc2ccnc3[nH]ccc23)cc(OC)c1OC [Compound P-0909]
≤ 10 µM: B-Raf | MAP4K4 | c-Raf-1

CCCS(=O)(=O)Nc1ccc(F)c(C(=O)c2c[nH]c3ncc(N4CCOCC4)cc23)c1F [Compound P-0853, Propane-1-sulfonic acid [2,4-difluoro-3-(5-morpholin-4-yl-1H-pyrrolo[2,3-b]pyridine-3-carbonyl)-phenyl]-amide]
not listed: Flt1 | Stk6 | Ret
≤ 10 µM: all other assays above

c1ccc(Sc2c[nH]c3ncccc23)nc1 [Compound P-0214]
≤ 10 µM: Flt1 | Stk6 | MAP4K4

O=C(O)/C=C/c1cccc(-c2cnc3[nH]cc(C(=O)c4cccc(OC(F)F)c4)c3c2)c1 [Compound P-1418, (E)-3-{3-[3-(3-Difluoromethoxy-benzoyl)-1H-pyrrolo[2,3-b]pyridin-5-yl]-phenyl}-acrylic acid]
≤ 10 µM: Flt1 | MAP4K4 | FGFR1 | B-Raf V600E

O=C(c1cc(Cl)cc(Cl)c1)c1c[nH]c2ncc(-c3cccnc3)cc12 [Compound P-1414, (3,5-Dichloro-phenyl)-(5-pyridin-3-yl-1H-pyrrolo[2,3-b]pyridin-3-yl)-methanone]
≤ 10 µM: Kit | MAP4K4 | B-Raf V600E

O=C(c1cccc(F)c1)c1c[nH]c2ncccc12 [Compound P-0367]
≤ 10 µM: Ret | Kit | MAP4K4

COc1cc(OC)cc(C(=O)c2c[nH]c3ncc(-c4ccccc4)cc23)c1 [Compound P-1406, (3,5-Dimethoxy-phenyl)-(5-phenyl-1H-pyrrolo[2.3 b]pyridin-3-yl)-methanone]
≤ 10 µM: Flt1 | Kit | MAP4K4 | FGFR1 | Fms

Clc1ncccc1Cc1c[nH]c2ncccc12 [Compound P-0317]
≤ 10 µM: Stk6 | MAP4K4 | Fms

O=C(O)/C=C/c1cccc(-c2cnc3[nH]cc(C(=O)c4cccc(OC(F)(F)F)c4)c3c2)c1 [Compound P-1417, (E)-3-{3-[3-(3-Trifluoromethoxy-benzoyl)-1H-pyrrolo[2,3-b]pyridin-5-yl]-phenyl}-acrylic acid]
≤ 10 µM: Flt1 | Kit | MAP4K4 | Src | B-Raf V600E

COc1ccc(-c2c[nH]c3ncccc23)c(OC)c1 [Compound P-0477]
≤ 10 µM: Flt1 | MAP4K4

CCCS(=O)(=O)Nc1cccc(C(=O)c2c[nH]c3ncccc23)c1F [Compound P-1056, propane-1-sulfonic acid [2-fluoro-3-(1H-1-pyrrolo[2,3-b]pyridine-3-carbonyl)-phenyl]-amide]
≤ 10 µM: B-Raf | MAP4K4 | c-Raf-1 | B-Raf V600E

CCCS(=O)(=O)Nc1ccc(Cl)c(C(=O)c2c[nH]c3ncccc23)c1F [Compound P-0904, Propane-1-sulfonic acid [4-chloro-2-fluoro-3-(1H-pyrrolo[2,3-b]pyridine-3-carbonyl)-phenyl]-amide]
≤ 10 µM: B-Raf | MAP4K4 | FGFR1 | c-Raf-1 | B-Raf V600E

COc1cccc(S(=O)(=O)Nc2ccc(F)c(C(=O)c3c[nH]c4ncccc34)c2F)c1 [Compound P-0971, N-[2,4-difluoro-3-(1H-pyrrolo[2,3-b]pyridine-3-carbonyl)phenyl]-3-methoxy-benzenesulfonamide]
≤ 10 µM: MAP4K4 | c-Raf-1 | B-Raf V600E
